In PubChem BioAssay AID1259411 (Chemical Carcinogenesis Research Information System (CCRIS), 2018):
Calls of active or inactive are those of the source. No rule for the calls is given here.

System: rodent carcinogenicity bioassays, tumor incidence
Test: CCRIS carcinogenicity studies
In short: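 Archive of carcinogenicity, mutagenicity, tumor promotion and tumor inhibition results drawn from journals, NCI reports and other sources, expert-reviewed; covers 1985-2011 and is no longer updated.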

In the case of `O=NN1CCOC1`, the carcinogen call (Species: HAMSTER, Strain/Sex: SYRIAN/MALE, Route: INTRAGASTRIC, Dose: 0, 23 MG/ML IN 0.2 ML STERILIZED WATER 1/WK FOR 35 WK (TOTAL DOSE 161 MG) (STUDY DURATION: LIFESPAN), Tumor Site: Type of Lesion: LIVER: HEPATOCELLULAR CARCINOMA, ADENOMA, HEMANGIOSARCOMA, CHOLANGIOCARCINOMA) is reported as “active; positive” and the carcinogen call (Species: RAT, Strain/Sex: F344/FEMALE, Route: ORAL, Dose: 35 MG/L IN DRINKING WATER FOR 50 WK, Tumor Site: Type of Lesion: LIVER: HEPATOCELLULAR CARCINOMA, HEMANGIOENDOTHELIAL SARCOMA) is reported as “active; positive”.
With `O=NC(=O)CCNCCO` the carcinogen call (Species: RAT, Strain/Sex: F344/FEMALE, Route: ORAL, Dose: 0, 50 MG/L DRINKING WATER 5 D/WK FOR 50 WK (TOTAL DOSE 250 MG) (STUDY DURATION: LIFESPAN), Tumor Site: Type of Lesion: ESOPHAGUS: CARCINOMA, PAPILLOMA, TONGUE: CARCINOMA, PAPILLOMA) was “active; positive”.
For `Nc1ccc(-n2c3ccccc3c3ccncc32)cc1`, the carcinogen call (Species: RAT, Strain/Sex: F344/MALE (30-33/GROUP), FEMALE (28-32/GROUP), Route: ORAL, Dose: 0, 20, 40 PPM IN DIET FOR 85 WK (STUDY DURATION: 85 WK), Dose: 0, 20, 40 PPM IN DIET FOR 85 WK (STUDY DURATION: 85 WK), Tumor Site: Type of Lesion: LIVER: ADENOMA, HEPATOCELLULAR CARCINOMA, COLON: ADENOCARCINOMA, THYROID: FOLLICULAR CELL ADENOMA AND CARCINOMA, MONONUC, Tumor Site: Type of Lesion: LIVER: ADENOMA, HEPATOCELLULAR CARCINOMA, COLON: ADENOCARCINOMA, THYROID: FOLLICULAR CELL ADENOMA AND CARCINOMA, MONONUC) was “active; positive”.
`OC[C@@H](O)[C@@H](O)[C@H](O)[C@H](O)CO` was tested, and the carcinogen call (Species: MOUSE, Strain/Sex: B6C3F1/FEMALE, Route: ORAL, Dose: 0, 2.5, 5% IN THE DIET FOR 103 WK (STUDY DURATION: 103 WK), Dose: 0, 2.5, 5% IN THE DIET FOR 103 WK (STUDY DURATION: 103 WK)) was “inactive; negative”, the carcinogen call (Species: MOUSE, Strain/Sex: B6C3F1/FEMALE, Route: ORAL, Dose: 0, 25000, 50000 PPM IN DIET, Dose: 0, 25000, 50000 PPM IN DIET) was “inactive; negative” and the carcinogen call (Species: MOUSE, Strain/Sex: B6C3F1/MALE, Route: ORAL, Dose: 0, 2.5, 5% IN THE DIET FOR 103 WK (STUDY DURATION: 103 WK), Dose: 0, 2.5, 5% IN THE DIET FOR 103 WK (STUDY DURATION: 103 WK)) was “inactive; negative”. For the same compound, the carcinogen call (Species: MOUSE, Strain/Sex: B6C3F1/MALE, Route: ORAL, Dose: 0, 25000, 50000 PPM IN DIET, Dose: 0, 25000, 50000 PPM IN DIET) was “inactive; negative”, the carcinogen call (Species: RAT, Strain/Sex: F344/FEMALE, Route: ORAL, Dose: 0, 2.5, 5% IN THE DIET FOR 103 WK (STUDY DURATION: 103 WK), Dose: 0, 2.5, 5% IN THE DIET FOR 103 WK (STUDY DURATION: 103 WK)) was “inactive; negative” and the carcinogen call (Species: RAT, Strain/Sex: F344/FEMALE, Route: ORAL, Dose: 0, 25000, 50000 PPM IN DIET, Dose: 0, 25000, 50000 PPM IN DIET) was “inactive; negative”. For the same compound, the carcinogen call (Species: RAT, Strain/Sex: F344/MALE, Route: ORAL, Dose: 0, 2.5, 5% IN THE DIET FOR 103 WK (STUDY DURATION: 103 WK), Dose: 0, 2.5, 5% IN THE DIET FOR 103 WK (STUDY DURATION: 103 WK)) was “inactive; negative” and the carcinogen call (Species: RAT, Strain/Sex: F344/MALE, Route: ORAL, Dose: 0, 25000, 50000 PPM IN DIET, Dose: 0, 25000, 50000 PPM IN DIET) was “inactive; negative”.
In the case of `Cn1cc(C(=O)O)c(=O)c2ccc(/C=C/c3ccc([N+](=O)[O-])o3)nc21`, the carcinogen call (Species: MOUSE, Strain/Sex: ICR/MALE, Route: ORAL, Dose: 0, 0.012% IN DIET FOR 14 WK (STUDY DURATION: 53 WK), Tumor Site: Type of Lesion: FORESTOMACH: SQUAMOUS CELL CARCINOMA, SQUAMOUS CELL PAPILLOMA, LUNG: PAPILLARY ADENOCARCINOMA) is reported as “active; positive”.
In the case of `C=CCCl`, the carcinogen call (Species: MOUSE, Strain/Sex: B6C3F1/FEMALE, Route: GAVAGE, Dose: 0, 129, 258 MG/KG IN CORN OIL 5 D/WK FOR 78 (STUDY DURATION: 92 WK), Dose: 0, 129, 258 MG/KG IN CORN OIL 5 D/WK FOR 78 (STUDY DURATION: 92 WK), Tumor Site: Type of Lesion: FORESTOMACH: SQUAMOUS CELL CARCINOMA OR PAPILLOMA) is reported as “equivocal”, the carcinogen call (Species: MOUSE, Strain/Sex: B6C3F1/MALE, Route: GAVAGE, Dose: 0, 172, 199 MG/KG IN CORN OIL 5 D/WK FOR 78 (STUDY DURATION: 92 WK), Dose: 0, 172, 199 MG/KG IN CORN OIL 5 D/WK FOR 78 (STUDY DURATION: 92 WK), Tumor Site: Type of Lesion: FORESTOMACH: SQUAMOUS CELL CARCINOMA) is reported as “equivocal” and the carcinogen call (Species: RAT, Strain/Sex: OSBORNE-MENDEL/FEMALE, Route: GAVAGE, Dose: 0, 55, 73 MG/KG N CORN OIL 5 D/WK FOR 78 (STUDY DURATION: 108-111 WK), Dose: 0, 55, 73 MG/KG N CORN OIL 5 D/WK FOR 78 (STUDY DURATION: 108-111 WK)) is reported as “inactive; negative”. The carcinogen call (Species: RAT, Strain/Sex: OSBORNE-MENDEL/MALE, Route: GAVAGE, Dose: 0, 57, 77 MG/KG IN CORN OIL 5 D/WK FOR 78 (STUDY DURATION: 108-111 WK), Dose: 0, 57, 77 MG/KG IN CORN OIL 5 D/WK FOR 78 (STUDY DURATION: 108-111 WK)) was “inactive; negative”.
In the case of `CN(C)c1ccc(C(=C2C=CC(=[N+](C)C)C=C2)c2ccc(N(C)C)cc2)cc1`, the carcinogen call (Species: MOUSE, Strain/Sex: B6C3F1/FEMALE, Route: ORAL, Dose: 0, 100, 300, 600 PPM IN DIET FOR 104 WK (STUDY DURATION: 2 YR), Dose: 0, 100, 300, 600 PPM IN DIET FOR 104 WK (STUDY DURATION: 2 YR), Tumor Site: Type of Lesion: LIVER: MALIGNANT NEOPLASM, HARDERIAN GLAND: ADENOMA, UTERUS: TYPE-A RETICULUM CELL SARCOMA, OVARIES: TYPE-A RETICULUM CE, Tumor Site: Type of Lesion: LIVER: MALIGNANT NEOPLASM, HARDERIAN GLAND: ADENOMA, UTERUS: TYPE-A RETICULUM CELL SARCOMA, OVARIES: TYPE-A RETICULUM CE) is reported as “active; positive”, the carcinogen call (Species: MOUSE, Strain/Sex: B6C3F1/MALE, Route: ORAL, Dose: 0, 100, 300, 600 PPM IN DIET FOR 104 WK (STUDY DURATION: 2 YR), Dose: 0, 100, 300, 600 PPM IN DIET FOR 104 WK (STUDY DURATION: 2 YR), Tumor Site: Type of Lesion: LIVER: MALIGNANT NEOPLASM, HARDERIAN GLAND: ADENOMA) is reported as “active; positive” and the carcinogen call (Species: RAT, Strain/Sex: F344/FEMALE, Route: ORAL, Dose: 0, 100, 300, 600 PPM IN FEED FOR 24 MO (STUDY DURATION: 24 MO), Dose: 0, 100, 300, 600 PPM IN FEED FOR 24 MO (STUDY DURATION: 24 MO), Tumor Site: Type of Lesion: LIVER: HEPATOCELLULAR ADENOMA, THYROID GLAND: FOLLICULAR CELL ADENOCARCINOMA) is reported as “active; positive”. For the same compound, the carcinogen call (Species: RAT, Strain/Sex: F344/MALE, Route: ORAL, Dose: 0, 100, 300, 600 PPM IN FEED FOR 24 MO (STUDY DURATION: 24 MO), Dose: 0, 100, 300, 600 PPM IN FEED FOR 24 MO (STUDY DURATION: 24 MO), Tumor Site: Type of Lesion: LIVER: HEPATOCELLULAR ADENOMA, THYROID GLAND: FOLLICULAR CELL ADENOCARCINOMA) was “active; positive”.
`CCC(C)OC(=O)N1CCCCC1CCO` (stereo unspecified) was tested, and the carcinogen call (Species: MOUSE, Strain/Sex: CD-1/FEMALE, Route: DERMAL, Dose: 0, 50, 100, 200 MG/KG BW FOR 78 WK (STUDY DURATION: 78 WK), Dose: 0, 50, 100, 200 MG/KG BW FOR 78 WK (STUDY DURATION: 78 WK)) was “inactive; negative”, the carcinogen call (Species: MOUSE, Strain/Sex: CD-1/MALE, Route: DERMAL, Dose: 0, 50, 100, 200 MG/KG BW FOR 78 WK (STUDY DURATION: 78 WK), Dose: 0, 50, 100, 200 MG/KG BW FOR 78 WK (STUDY DURATION: 78 WK)) was “inactive; negative” and the carcinogen call (Species: RAT, Strain/Sex: SPRAGUE-DAWLEY/FEMALE, Route: DERMAL, Dose: 0, 50, 100, 200 MG/KG BW FOR 104 WK (STUDY DURATION: 104 WK), Dose: 0, 50, 100, 200 MG/KG BW FOR 104 WK (STUDY DURATION: 104 WK)) was “inactive; negative”. The carcinogen call (Species: RAT, Strain/Sex: SPRAGUE-DAWLEY/MALE, Route: DERMAL, Dose: 0, 50, 100, 200 MG/KG BW FOR 104 WK (STUDY DURATION: 104 WK), Dose: 0, 50, 100, 200 MG/KG BW FOR 104 WK (STUDY DURATION: 104 WK)) was “inactive; negative”.
`O[C@@H]1C=Cc2c(cc3ccc4cccc5ccc2c3c45)[C@H]1O` was tested, and the carcinogen call (Species: FISH, Strain/Sex: RAINBOW TROUT/MALE,FEMALE, Route: INJECTION, Dose: 0, 0.5, 2, 5 UG INJECTED INTO NEWLY HATCHED SAC-FRY (STUDY DURATION: 9 MO), Dose: 0, 0.5, 2, 5 UG INJECTED INTO NEWLY HATCHED SAC-FRY (STUDY DURATION: 9 MO), Tumor Site: Type of Lesion: LIVER: TUMOR) was “active; positive”.
